{
  "source": "patent US20180327364A1",
  "about": "“MTOR INHIBITORS AND METHODS OF USE THEREOF” (Brandeis University, priority 2015, published 2018)",
  "key": {"eIF2α": {"test_system": "eIF2α", "assay": "eIF2α phosphorylation immunoblot in HEK-293T cells", "format": "cell-based", "details": "1 h; tunicamycin 5 μg/mL, thapsigargin 500 nM; compared with vehicle", "description": "(§1) Quantification of western blots was performed with ImageJ. Cells were lysed in RIPA buffer (1% NP-40, 1% NaDeoxycholate, 0.1% SDS, 10 mM TrisCl, 10 mM β-glycerophosphate, 10 mM Na pyrophosphate, 50 mM NaF, 200 μM Na vanadate, 1 mM EDTA, 500 μM EGTA, 1% benzonase, and supplemented with complete (Roche Diagnostics) protease inhibitors)."}, "[1]": {"target": "T1, recombinant firefly luciferase (Photinus pyralis, UniProt P08659)", "T1 construct": "purchased Promega", "T1 sequence (P08659 whole entry)": "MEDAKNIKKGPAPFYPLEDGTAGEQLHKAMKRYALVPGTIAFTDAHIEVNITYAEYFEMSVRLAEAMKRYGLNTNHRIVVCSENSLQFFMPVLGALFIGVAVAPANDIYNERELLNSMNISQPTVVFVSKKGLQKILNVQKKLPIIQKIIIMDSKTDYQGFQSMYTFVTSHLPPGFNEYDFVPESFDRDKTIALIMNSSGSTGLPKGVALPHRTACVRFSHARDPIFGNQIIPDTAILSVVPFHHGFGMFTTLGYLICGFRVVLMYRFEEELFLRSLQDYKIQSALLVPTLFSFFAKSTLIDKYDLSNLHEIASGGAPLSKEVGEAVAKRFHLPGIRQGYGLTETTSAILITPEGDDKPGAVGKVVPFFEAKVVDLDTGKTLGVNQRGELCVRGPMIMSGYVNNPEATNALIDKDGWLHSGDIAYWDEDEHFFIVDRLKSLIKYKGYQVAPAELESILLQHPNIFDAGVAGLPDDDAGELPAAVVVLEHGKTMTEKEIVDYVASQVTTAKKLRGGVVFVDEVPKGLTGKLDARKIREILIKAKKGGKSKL", "assay": "Recombinant luciferase assay", "format": "biochemical", "details": "100 μM compound, 10 min incubation", "description": "Stably transduced luciferase HEK-293T cells were plated in 96-well plates 24 h prior to treatment with 100 μM of Cbz-B3A, amine-B3A, acetyl-B3A, and Cbz-acetyl. After 4 h, cells were harvested and measured with Luciferase Assay System with Reporter Lysis Buffer from Promega according to the manufacturer's protocol. Before the addition of luciferin, protein concentration was measured by removing 2 μl of lysate from each well and adding it to diluted Bio-Rad Protein Assay Dye Reagent Concentrate, and the absorbance was measured at OD595. The protein concentration was used to normalize luciferase signal. For translation assays, cells were pretreated for 15 min with 100 μg/mL cycloheximide or 6 μM bortezomib. For the recombinant luciferase assay, Quantilum Recombinant Luciferase (Promega) was diluted 1:250,000 in reporter lysis buffer with 1 mg/mL BSA then mixed 1:1 with 200 μM compound in the same buffer for a final dilution of 1:500,000 and 100 μM compound in 20 μL. This was incubated for 10 min at room temperature then measured with Luciferase Assay System with Reporter Lysis Buffer from Promega according to the manufacturer's protocol."}, "[2]": {"test_system": "mTORC2 catalyzed phosphorylation of Akt", "assay": "Akt phosphorylation immunoblot (mTORC2) in HEK-293T cells", "format": "cell-based", "details": "HEK-293T cells treated with Cbz-B3A", "description": "as §1"}, "[3]": {"test_system": "p70s6k phosphorylation (mTORC1)", "assay": "p70s6k phosphorylation immunoblot in HEK-293T cells", "format": "cell-based", "description": "as §1"}, "K562 cells [4]": {"test_system": "K562 cells", "assay": "NCI-60 DTP Human Tumor Cell Line Screen, K562", "format": "cell-based", "details": "48 h, read-out: inhibition of proliferation, K562", "description": "(§2) Screen was conducted as previously described, performed at Developmental Therapeutics Program NCI/NIH."}, "BaF3/p210 cells": {"test_system": "BaF3/p210 cells", "assay": "CellTiter-Glo proliferation, BaF3/p210", "format": "cell-based", "details": "Mus musculus, 48 h", "description": "(§3) To determine cellular growth, CellTiter-Glo luminescent cell viability assay (Promega) was used per the manufacturer's instruction. To determine cytotoxicity, LDH release was measured with the LDH Cytotoxicity Assay Kit (Pierce) according to the manufacture's protocol. For 4 h assays, 96 well plates were seeded at 75,000 cells/mL for BaF3/p210 cells or K562 cells. For HEK-293T cells, 10,000 cells/well were plated 24 h before treatment. Cells were treated for 4 h at 37° C. and […] was removed from every well and used in the LDH Cytotoxicity assay per the manufacturer's protocol. For 48 h assays, 7,500 cells/mL of BaF3/p210 or K562 cells were incubated with compound at 37° C. for 48 h (200 μL/well). For HEK-293T cells, 1,000 cells/well were plated 24 h prior to compound treatment. After treatment, 50 μL was removed from each well for the LDH assay for all cell lines and 100 μL of mixed cells were removed and used with the CellTiter-Glo kit for K562 and BaF3/p210 cells. For HEK-293T cells, wells were treated directed with the CellTiter-Glo kit. Cytotoxicity or viability was measured by luminosity and absorbance on a microplate reader."}, "K562 cells [5]": {"test_system": "K562 cells", "assay": "CellTiter-Glo proliferation, K562", "format": "cell-based", "details": "Homo sapiens, 48 h", "description": "as §3"}, "MOLT-4": {"test_system": "MOLT-4", "assay": "NCI-60 DTP Human Tumor Cell Line Screen, MOLT-4", "format": "cell-based", "details": "10 μM, 48 h", "description": "as §2"}, "LC3 A/B II": {"test_system": "LC3 A/B II", "assay": "LC3 A/B II immunoblot (autophagy) in HEK-293T cells", "format": "cell-based", "details": "Cbz-B3A 10 μM, rapamycin 20 nM, 4 h", "description": "as §1"}, "mTOR": {"test_system": "mTOR", "assay": "mTOR level and mTOR phosphorylation immunoblot in HEK-293T cells", "format": "cell-based", "details": "10 μM, 4 h", "description": "as §1"}, "[6]": {"test_system": "4EBP1 phosphorylation by mTORC1", "assay": "4EBP1 phosphorylation immunoblot in HEK-293T cells", "format": "cell-based", "details": "4 h", "description": "as §1"}, "[7]": {"test_system": "K562, BaF3/p210, and HEK-293T cells", "assay": "LDH release cytotoxicity assay", "format": "cell-based", "details": "4 and 48 h", "description": "as §3"}, "Rheb": {"test_system": "Rheb", "assay": "Rheb level immunoblot in HEK-293T cells", "format": "cell-based", "details": "10 μM, 4 h; p=0.04 vs DMSO", "description": "as §1"}},
  "data": [
    {"smiles": "CC(C)(C)OC(=O)/N=C(\\NCCC[C@H](NC(=O)OC(C)(C)C)C(=O)NCCCCCCNC(=O)OCc1ccccc1)NC(=O)OC(C)(C)C", "note": "[Cbz-B3A]", "values": [
      {"measurement": "eIF2α phosphorylation", "setting": "eIF2α", "result": "no increase in eIF2α phosphorylation"},
      {"measurement": "recombinant firefly luciferase signal (enzymatic activity)", "setting": "[1]", "result": "no reduction of signal"},
      {"measurement": "Akt phosphorylation at Ser473", "setting": "[2]", "result": "No decrease in Akt phosphorylation"},
      {"measurement": "p70s6k Ser371 phosphorylation", "setting": "[3]; 10 μM, 4 h", "result": "did not inhibit phosphorylation"},
      {"measurement": "EC50", "setting": "[3]; Homo sapiens, HEK-293T, 4 h, read-out: EC50 of inhibition of p70s6k Thr389 phosphorylation", "result": "~5", "unit": "µM"},
      {"measurement": "phosphorylation retained at Thr389 of p70s6k", "setting": "[3]; at maximum inhibition", "result": "approximately 30%"},
      {"measurement": "inhibition at 10 µM", "setting": "K562 cells [4]", "result": 39, "unit": "%"},
      {"measurement": "inhibition at 10 µM", "setting": "BaF3/p210 cells", "result": 68, "unit": "%"},
      {"measurement": "inhibition at 10 µM", "setting": "K562 cells [5]", "result": 52, "unit": "%"},
      {"measurement": "decrease in proliferation, MOLT-4", "setting": "MOLT-4", "result": 80, "unit": "%"},
      {"measurement": "LC3 A/B II (autophagy)", "setting": "LC3 A/B II", "result": "increased LC3 A/B II to equivalent levels as rapamycin"},
      {"measurement": "Ser2481 phosphorylation of mTOR", "setting": "mTOR", "result": "no change in Ser2481 phosphorylation"},
      {"measurement": "levels of mTOR", "setting": "mTOR", "result": "did not change"},
      {"measurement": "phosphorylation of mTOR at Ser2448", "setting": "mTOR", "result": "only a small effect"},
      {"measurement": "4EBP1 phosphorylation (hyper- vs hypo-phosphorylated band)", "setting": "[6]; Cbz-B3A 10 μM, Cbz-acetyl 10 μM, rapamycin 20 nM", "result": "clear shift from hyper-phosphorylation to hypo-phosphorylation"},
      {"measurement": "EC50", "setting": "[6]; Homo sapiens, HEK-293T, read-out: EC50 of inhibition of 4EBP1 phosphorylation", "result": "~2", "unit": "µM"},
      {"measurement": "cytotoxicity by release of lactate dehydrogenase", "setting": "[7]", "result": "not cytotoxic"},
      {"measurement": "amount of Rheb", "setting": "Rheb", "result": "increased the amount of Rheb"}
    ]}
  ]
}
